≈ marks a conversion by molar mass, not a printed value. Read-outs that look alike come from different tables or passages of the source. Starred links: 1 amine or outer side, 2 acyl side, 3 side chain; linkers in the order of their positions; H or OH if unused. Positions of bridges follow the written chain, without caps; N, C: chain ends. Non-standard residues stand in square brackets, D forms with d. Residues, ends and D or L forms follow the SMILES beside them. ξ: configuration not given here. *: point of attachment. Hexadecanesulfonyl = CCCCCCCCCCCCCCCCS(=O)(=O)*; ξAbu(βξ-NH2) = CC(N[*:3])C(N[*:1])C(=O)[*:2]; ξAsp(βξ-Me) = CC(C(=O)O)C(N)C(=O)O; ξAbu(3ξ-NH2) = CC(N)C(N)C(=O)O; X1 = CCCCCCCCCCS(=O)(=O)*; Pip = O=C(O)[CH]1CCCCN1; ξD = NC(CC(=O)O)C(=O)O; Dap = NC[CH](N)C(=O)O; ξI = CCC(C)C(N)C(=O)O; ξPip = O=C(O)C1CCCCN1; ξT = CC(O)C(N)C(=O)O; ξDap = NCC(N)C(=O)O; ξP = O=C(O)C1CCCN1
Key:
[1] = tested on: Staphylococuss aureus; assay: Resistance to deacylase enzyme: agar well zone diffusion bioassay of deacylase broth samples; format: cell-based; settings: 9 mm well, 100 μl of sample, incubated 16 hrs. at 28° C.; for Bioassay zone dia. 16 hours: after 16 hours in deacylase broth, 200 rpm, 84° C.; for Bioassay zone dia. Zero time: zero time in deacylase broth
Procedure: (§1) One milligram of the hexadecylsulfonyl-L-tryptophan derivative of the core antibiotic of laspartomycin (see Section 5.4 for preparation) was added to 2 mL of deacylase broth (prepared as described in Section 5.1) and a zero time sample (0.5 mL) was removed and stored by freezing. The reaction mixture was placed on a shaker at 200 rpm and 84° C. for 16 hours. The zero and 16 hour samples were then studied by HPLC and by agar well zone diffusion assay using Staphylococuss aureus as a test organism. The same conditions were used to compare laspartomycin to enzyme deactivation. […] Under the same conditions Antibiotic A21978C and Aspartocin were completely deactivated within two hours and 16 hours, respectively.

[2] = tested on: Staphlococcus aureus strain Smith; format: cell-based
Procedure: MIC values were determined by microliter serial dilution using Staphlococcus aureus strain Smith as the assay organism, which was grown in Mueller-Hinton broth with and without CaCl2.

[3] = tested on: deacylase broth; assay: in vitro; format: in vitro ADME, Actinoplanes utahensis NRRL 12052
Procedure: (§2) The high-producing, natural variant was used in the known fermentation protocol employed (Boeck et al., 1988. J. Antibiot., 41, 1085). A stock culture of Actinoplanes utahensis NRRL 12052 variant, preserved in 20% glycerol at −70° C., was introduced into a 25×150 mm test tube containing 10 mL of a medium comprised of 2.0% sucrose, 2.0% pre-cooked oatmeal, 0.5% distiller's grain, 0.25% yeast, 0.1% K2HPO4, 0.05% KCl, 0.05% MgSO4-7H2O and 0.0002% FeSO4-7H2O in deionized water. After incubation at 30° C. for 72 hrs on a rotary shaker orbiting at 250 rpm the resulting mycelial suspension was transferred into 50 mL of PM3 medium in a 250 mL Erlenmeyer flask. The PM3 medium contained 2.0% sucrose, 1.0% peanut meal, 0.12% K2HPO4, 0.05% KH2PO4 and 0.025% MgSO4-7H2O, in tap water. The flask was incubated at a temperature of 30° C. for a period of between 60 to 90 hrs. The whole broth from this fermentation contained the deacylase enzyme.
as §1

[4] = tested on: deacylase; assay: in vitro; format: in vitro ADME, Actinoplanes utahensis NRRL 12052; settings: Actinoplanes utahensis, cells or culture medium
Procedure: as §2, §1

[5] = tested on: Staphylococcus aureus; assay: MIC against Staphylococcus aureus (comparison with aspartocin); format: cell-based
Procedure: One drop of piperdine was added to about 5.5 mg of the product from Section 5.2.4 dissolved in 2.0 mL of 2:1 mixture of dimethylsulfoxide:methanol. Monitoring by HPLC indicated the reaction was complete after 60 minutes at room temperature. The reaction was quenched by addition of 6.0 mL cooled 0.2 M ammonium phosphate at pH 7.2. The quenched reaction mixture was applied to a 0.5 g resin cartridge (ENVI-Chrom P) and eluted with a stepwise gradient of pH 7.2 phosphate-buffered aqueous acetonitrile. The product was eluted with 25% acetonitrile. Appropriate fractions were pooled and acetonitrile was removed under vacuum at room temperature. The product was desalted by adsorption onto a 0.5 g resin cartridge which was then rinsed with 10% acetonitrile, followed by 50% acetonitrile. The 50% acetonitrile eluate was evaporated to remove acetonitrile and the resulting aqueous solution freeze dried to provide about 1.5 mg of white solid. FAB-MS: m/z 1379 (M+Na)^+ was consistent with the expected structure.

laspartomycin [reference compound]
Bioassay zone dia. 16 hours [1]: no zone | Bioassay zone dia. Zero time [1]: 15.5 mm | MIC w CaCl2 (4 mm) ([2]; S. aureus strain Smith, Mueller-Hinton broth, with CaCl2 (4 mm)): 2000 µg/mL | MIC w/o CaCl2 ([2]; S. aureus strain Smith, Mueller-Hinton broth, without CaCl2): 16000 µg/mL | HPLC Peak Area zero time [3]: 100% | deactivation / degradation by the enzyme preparation (in words) [3]: complete deactivation | HPLC Peak Area 16 hours ([3]; Actinoplanes utahensis, cells or culture medium, 16 h, 0.5 mg/mL): 0%

CCCCCCCCCCCCCCCCS(=O)(=O)NC(Cc1c[nH]c2ccccc12)C(=O)NC(CC(=O)O)C(=O)NC1CNC(=O)C2CCCN2C(=O)C(C(C)CC)NC(=O)C(C(C)O)NC(=O)CNC(=O)C(CC(=O)O)NC(=O)CNC(=O)C(CC(=O)O)NC(=O)CNC(=O)C2CCCCN2C1=O (stereo not drawn) [Compound 52] (Hexadecanesulfonyl-WD[Dap][Pip]GDGDGTIP; lactam 3-C; configuration not given here)
MIC w CaCl2 (4 mm) [2]: 4000 µg/mL (≈ 2670 µM) | MIC w/o CaCl2 [2]: 8000 to 16000 µg/mL

CCCCCCCCCCS(=O)(=O)NCC(=O)NC(CC(=O)O)C(=O)NC1C(=O)N2CCCCC2C(=O)NC(C(C)C(=O)O)C(=O)NC(CC(=O)O)C(=O)NCC(=O)NC(CC(=O)O)C(=O)NCC(=O)NC(C(C)N)C(=O)NC(C(C)C)C(=O)N2CCCC2C(=O)NC1C (stereo not drawn) [Compound 58] (X1-GD[ξAbu(βξ-NH2)][Pip][ξAsp(βξ-Me)]DGDG[ξAbu(3ξ-NH2)]VP; lactam 3-C; configuration not given here)
MIC w CaCl2 (4 mm) [2]: 1000 µg/mL (≈ 737 µM) | MIC w/o CaCl2 [2]: 32000 µg/mL (≈ 23600 µM)

CCCCCCCCCCCCCCCCS(=O)(=O)N[C@@H](Cc1c[nH]c2ccccc12)C(=O)N[C@@H](CC(=O)O)C(=O)NC1CNC(=O)C2CCCN2C(=O)C(C(C)CC)NC(=O)C(C(C)O)NC(=O)CNC(=O)C(CC(=O)O)NC(=O)CNC(=O)C(CC(=O)O)NC(=O)CNC(=O)C2CCCCN2C1=O (stereo partly drawn) [Hexadecylsulfonyl-L-Tryptophan Derivative of the Core Antibiotic of Laspartomycin] (Hexadecanesulfonyl-WD[ξDap][ξPip]G[ξD]G[ξD]G[ξT][ξI][ξP]; lactam 3-C)
Bioassay zone dia. 16 hours [1]: 12.8 mm | Bioassay zone dia. Zero time [1]: 13.7 mm | HPLC Peak Area zero time [3]: 100% | deactivation / degradation by the enzyme preparation (in words) [3]: degraded at a much slower rate | remaining at 16 h, 0.5 mg/mL [4]: 53%

Decanesulfonylglycyl Aspartocin [decanesulfonylglycyl derivative]
MIC values compared with aspartocin [5]: essentially the same as those for aspartocin

CCCCCCCCCCCCCCCCS(=O)(=O)NC(Cc1ccccc1)C(=O)NC(CC(=O)O)C(=O)NC1CNC(=O)C2CCCN2C(=O)C(C(C)CC)NC(=O)C(C(C)O)NC(=O)CNC(=O)C(CC(=O)O)NC(=O)CNC(=O)C(CC(=O)O)NC(=O)CNC(=O)C2CCCCN2C1=O (stereo not drawn) [Compound 56] (Hexadecanesulfonyl-FD[Dap][Pip]GDGDGTIP; lactam 3-C; configuration not given here)
MIC w CaCl2 (4 mm) [2]: 4000 µg/mL (≈ 2740 µM) | MIC w/o CaCl2 [2]: 8000 µg/mL (≈ 5480 µM)

CCCCCCCCCCCCCCCCS(=O)(=O)NC(Cc1ccccc1)C(=O)NC(CC(=O)O)C(=O)NC1C(=O)N2CCCCC2C(=O)NC(C(C)C(=O)O)C(=O)NC(CC(=O)O)C(=O)NCC(=O)NC(CC(=O)O)C(=O)NCC(=O)NC(C(C)N)C(=O)NC(C(C)C)C(=O)N2CCCC2C(=O)NC1C (stereo not drawn) [Compound 62] (Hexadecanesulfonyl-FD[ξAbu(βξ-NH2)][Pip][ξAsp(βξ-Me)]DGDG[ξAbu(3ξ-NH2)]VP; lactam 3-C; configuration not given here)
MIC w CaCl2 (4 mm) [2]: 4000 µg/mL (≈ 2610 µM) | MIC w/o CaCl2 [2]: 4000 µg/mL (≈ 2610 µM)
